Test results reported in patent EP4663640A1 (Shanghai Institute of Materia Medica, Chinese Academy of …, priority 2023, dated 2024).

Tests used:
hTRPC5 [1] = target: T1, hTRPC5 (Homo sapiens, UniProt Q9UL62); experiment: TRPC5 agonist activity assay (FLIPR calcium fluorescence); assay type: cell-based; settings: Table 2, agonist activity on TRPC5 channels
T1 construct: expressed in transfected cells; host or cells: HEK-293
T1 sequence (Q9UL62 1-973): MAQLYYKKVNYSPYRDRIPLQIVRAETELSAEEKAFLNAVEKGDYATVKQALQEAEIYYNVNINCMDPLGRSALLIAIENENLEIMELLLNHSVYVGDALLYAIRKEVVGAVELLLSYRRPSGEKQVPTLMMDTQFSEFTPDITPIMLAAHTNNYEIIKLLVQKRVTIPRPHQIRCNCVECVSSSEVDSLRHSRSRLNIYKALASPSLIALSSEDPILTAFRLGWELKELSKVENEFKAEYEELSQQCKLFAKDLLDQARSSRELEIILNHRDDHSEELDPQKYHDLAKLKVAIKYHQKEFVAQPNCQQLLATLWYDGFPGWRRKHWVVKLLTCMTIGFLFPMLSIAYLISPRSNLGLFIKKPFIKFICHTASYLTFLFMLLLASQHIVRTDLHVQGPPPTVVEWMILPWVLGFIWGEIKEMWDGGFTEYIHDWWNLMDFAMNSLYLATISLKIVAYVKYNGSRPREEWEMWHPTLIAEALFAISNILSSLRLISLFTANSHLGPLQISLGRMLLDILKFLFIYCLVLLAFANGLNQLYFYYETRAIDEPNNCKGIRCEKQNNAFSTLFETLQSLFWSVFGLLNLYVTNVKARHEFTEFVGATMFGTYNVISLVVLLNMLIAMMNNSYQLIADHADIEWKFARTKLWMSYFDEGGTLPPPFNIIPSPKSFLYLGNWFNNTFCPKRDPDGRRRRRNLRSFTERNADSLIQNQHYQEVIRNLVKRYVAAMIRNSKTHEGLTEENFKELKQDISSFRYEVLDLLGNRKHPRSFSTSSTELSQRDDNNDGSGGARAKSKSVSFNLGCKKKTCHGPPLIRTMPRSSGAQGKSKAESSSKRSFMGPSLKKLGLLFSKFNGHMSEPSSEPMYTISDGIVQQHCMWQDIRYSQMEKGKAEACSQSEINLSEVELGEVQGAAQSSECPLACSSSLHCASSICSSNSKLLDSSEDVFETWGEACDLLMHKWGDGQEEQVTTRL
Method: HEK-293 cells expressing hTRPC5 were seeded into PDL-coated black-walled 96-well plates, with 2×10^4 cells per well. After 8 hours of culture, the original culture medium was discarded, and 60 µL of 4 µM Fluo-4/AM dye was added immediately. The cells were incubated at 37 °C for 60 minutes, and then rinsed with calcium flow detection buffer 5 times. The cell plates were placed in FLIPR®TETRA (Molecular Devices, Sunnyvale, CA, USA) preheated at 30 °C, excited at a wavelength of 488 nm, and the fluorescence signals were continuously recorded in the range of 515-535 nm with a sampling frequency of 1 s. After recording for 360 seconds, solvent control and test compounds were added, and the fluorescence signal was collected for another 600 seconds. The fluorescence signal of the trajectory diagram is represented by F/F0, wherein F is the fluorescence signal at different time points, and F0 is the basic fluorescence signal, that is, the average value of the fluorescence signal at the first 10 time points. The dose-effect diagram first took F/F0 =1 as the baseline. The area under the curve of the change in fluorescence intensity after adding test compound was calculated. IC50 value was calculated using log[agonist] vs. response - Variable slope, taking into account the area under the curve and the log value of the concentration of the compound.

[2] = Preliminary pharmacokinetic evaluation, plasma drug concentration after oral administration to mice; assay type: in vivo, ICR mice; settings: male, ICR, mouse, oral 10 mg/kg, Mean ± SD, N = 3
Method: The test compound was prepared according to the following solvent: an aqueous solution of DMSO/Tween 80/0.5% (m/v) CMC-Na at a ratio of 2:2:96 (v/v/v), with a drug concentration of 1 mg/mL. Then, the test compound was gavaged to mice at a dosage of 10 mL/kg, with a dose of 10 mg/kg. Each compound was administered to 3 mice. At 1h and 4h after administration, about 50 µL of blood was collected from the orbital venous plexus of the mouse and placed in a centrifuge tube containing EDTA-K2 anticoagulant.

hTRPC5 [3] = target: T1, hTRPC5; experiment: TRPC5 inhibitory activity assay (FLIPR calcium fluorescence, Englerin A stimulation); assay type: cell-based; settings: Table 1, TRPC5 channels, HEK-293 cells expressing hTRPC5; read-out: FLIPR IC50
Method: HEK-293 cells expressing hTRPC3, hTRPC4 or hTRPC5 were seeded into black-bottomed 96-well plates coated with poly-lysine (PDL), with 2×10^4 cells per well. After 8 h of culture, the original culture medium was discarded, and 60 µL of Fluo-4/AM dye with a final concentration of 4 µM was added. The plates were incubated at 37 °C for 60 min, and then rinsed five times with calcium flow detection buffer. […] Then, the agonist Englerin A (EA) (MedChemExpress, Shanghai, China, final concentration of 0.3nM) was added, and the fluorescence signal was collected for 600 seconds. The fluorescence signal of the trajectory diagram is represented by F/F0, wherein F is the fluorescence signal at different time points, and F0 is the basic fluorescence signal, that is, the average value of the fluorescence signal at the first 10 time points. […] The area under the curve of the change in fluorescence intensity after adding EA was calculated. IC50 value was calculated using log[Inhibitor] vs. response - Variable slope, taking into account the area under the curve and the log value of the concentration of the compound.

[4] = Liver microsome stability test, human; settings: for Stability Evaluation / MF %: Human liver microsomes; for MF %: metabolic bioavailability
[5] = Liver microsome stability test, mouse; assay type: in vitro ADME; settings: Mouse liver microsomes; for MF %: metabolic bioavailability
Text: Calculation of Intrinsic Clearance: Clint = (1000 × slope)/(P); [formula]

Row | SMILES | EC50 (hTRPC5 [1]) | Stability Evaluation [4] | MF % [4] | other results
1 | CC(C)OC1CCC(c2nc3c(c(=O)n(CCCO)c(=O)n3C)n2Cc2ccc(Cl)cc2)CC1 (centres unmarked) [Example E7, 7-(4-chlorobenzyl)-1-(3-hydroxypropyl)-8-(4-isopropoxycyclohexyl)-3-methyl-3,7-dihydro-1H-purine-2,6-dione] | 36.1 nM |  |  | 
2 | Cn1c(=O)n(CCCO)c(=O)c2c1cc(C1CCC(c3ccccc3)CC1)n2Cc1ccc(Cl)cc1 (centres unmarked) [Example E5, 5-(4-chlorobenzyl)-3-(3-hydroxypropyl)-1-methyl-6-(4-phenylcyclohexyl)-1,5-dihydro-2H-pyrrolo[3,2-d]pyrimidine-2,4(3H)-dione] | 141 nM |  |  | 
3 | Cn1c(=O)n(CCCO)c(=O)c2c1nc(C1=CCC(F)(F)CC1)n2Cc1ccc(Cl)cc1 [Example E37, 7-(4-chlorobenzyl)-8-(4,4-difluorocyclohex-1-en-1-yl)-1-(3-hydroxypropyl)-3-methyl-3,7-dihydro-1H-purine-2,6-dione] | 100 to 200 nM |  |  | 
4 | Cn1c(=O)n(CCCO)c(=O)c2c1nc(C1(F)CCC(C(F)(F)F)CC1)n2Cc1ccccc1 (centres unmarked) [Example E63, 7-benzyl-8-(1-fluoro-4-(trifluoromethyl)cyclohexyl)-1-(3-hydroxypropyl)-3-methyl-3,7-dihydro-1H-purine-2,6-dione] |  | Better (MF% >70%, better metabolic stability) | 74.4% | concentration at 1 h [2]: 2800 ± 860 ng/mL; concentration at 4 h [2]: 2060 ± 755 ng/mL; IC50 (hTRPC5 [3]): 0.86 nM; half-life at 1 µM ([4]; human, liver microsomes, pH 7.4): 311 min
5 | CC(C)n1c(=O)n(CCCO)c(=O)c2c1nc(C1(F)CCC(F)(F)CC1)n2Cc1ccc(F)cc1 [Example E46, 7-(4-fluorobenzyl)-1-(3-hydroxypropyl)-3-isopropyl-8-(1,4,4-trifluorocyclohexyl)-3,7-dihydro-1H-purine-2,6-dione] |  |  |  | concentration at 1 h [2]: 1170 ± 410 ng/mL; concentration at 4 h [2]: 576 ± 117 ng/mL
6 | Cn1c(=O)n(CCCO)c(=O)c2c1nc(C1(F)CCC(F)(F)CC1)n2Cc1ccc(F)cc1F [Example E64, 7-(2,4-difluorobenzyl)-1-(3-hydroxypropyl)-3-methyl-8-(1,4,4-trifluorocyclohexyl)-3,7-dihydro-1H-purine-2,6-dione] |  | Better (MF% >70%, better metabolic stability) | 72.5% | Stability Evaluation [5]: Medium (30%<MF%<70%, medium metabolic stability); MF % [5]: 56.4%
7 | Cn1c(=O)n(CCCO)c(=O)c2c1nc(C1(F)CCC(c3ccccc3)CC1)n2Cc1ccc(Cl)cc1 (centres unmarked) [Example E54, 7-(4-chlorobenzyl)-8-(1-fluoro-4-phenylcyclohexyl)-1-(3-hydroxypropyl)-3-methyl-3,7-dihydro-1H-purine-2,6-dione] | 170 nM |  |  | 
8 | Cn1c(=O)n(CCCO)c(=O)c2c1nc(C1(F)CCC(F)(F)CC1)n2Cc1ccc(C#N)cc1 [Example E72, 4-((1-(3-hydroxypropyl)-3-methyl-2,6-dioxo-8-(1,4,4-trifluorocyclohexyl)-1,2,3,6-tetrahydro-7H-purin-7-yl)methyl)benzonitrile] |  | Medium (30%<MF%<70%, medium metabolic stability) | 66.7% | 
9 | CC(C)C1CCC(F)(c2nc3c(c(=O)n(CCCO)c(=O)n3C)n2Cc2ccc(Cl)cc2)CC1 (centres unmarked) [Example E31, 7-(4-chlorobenzyl)-8-(1-fluoro-4-isopropylcyclohexyl)-1-(3-hydroxypropyl)-3-methyl-3,7-dihydro-1H-purine-2,6-dione] | 102 nM |  |  | 
10 | CC(C)n1c(=O)n(CCCO)c(=O)c2c1nc(C1CC1C1CC1)n2Cc1ccc(Cl)cc1 (centres unmarked) [Example E14, 8-([1,1'-bis(cyclopropan)]-2-yl)-7-(4-chlorobenzyl)-1-(3-hydroxypropyl)-3-isopropyl-3,7-dihydro-1H-purine-2,6-dione] | 105 nM |  |  | 
11 | Cn1c(=O)n(CCCO)c(=O)c2c1nc(C1(F)CC(c3ccccc3)C1)n2Cc1ccc(Cl)cc1 (centres unmarked) [Example E17, 7-(4-chlorobenzyl)-8-(1-fluoro-3-phenylcyclobutyl)-1-(3-hydroxypropyl)-3-methyl-3,7-dihydro-1H-purine-2,6-dione] | 242 nM |  |  | 
12 | Cn1c(=O)n(CCCO)c(=O)c2c1nc(C1(F)CCC(N3CCCC3)CC1)n2Cc1ccc(Cl)cc1 (centres unmarked) [Example E55, 7-(4-chlorobenzyl)-8-(1-fluoro-4-(pyrrolidin-1-yl)cyclohexyl)-1-(3-hydroxypropyl)-3-methyl-3,7-dihydro-1H-purine-2,6-dione] | 700 nM |  |  | 
13 | Cn1c(=O)n(CCCO)c(=O)c2c1nc(C1(F)CCC(F)(F)CC1)n2Cc1ccc(Cl)cc1F [Example E70, 7-(4-chloro-2-fluorobenzyl)-1-(3-hydroxypropyl)-3-methyl-8-(1,4,4-trifluorocyclohexyl)-3,7-dihydro-1H-purine-2,6-dione] |  |  |  | concentration at 1 h [2]: 1260 ± 167 ng/mL; concentration at 4 h [2]: 1200 ± 110 ng/mL
14 | CC(C)OC1CCC(F)(c2nc3c(c(=O)n(CCCO)c(=O)n3C)n2Cc2ccc(Cl)cc2)CC1 (centres unmarked) [Example E19, 7-(4-chlorobenzyl)-8-(1-fluoro-4-isopropoxycyclohexyl)-1-(3-hydroxypropyl)-3-methyl-3,7-dihydro-1H-purine-2,6-dione] | 74.5 nM |  |  | 
15 | Cn1c(=O)n(CCCO)c(=O)c2c1nc(C1(F)CCC(F)(F)CC1)n2Cc1ccc(Cl)cc1 [Example E38, 7-(4-chlorobenzyl)-1-(3-hydroxypropyl)-3-methyl-8-(1,4,4-trifluorocyclohexyl)-3,7-dihydro-1H-purine-2,6-dione] |  | Medium (30%<MF%<70%, medium metabolic stability) | 50.5% | Stability Evaluation [5]: Medium (30%<MF%<70%, medium metabolic stability); MF % [5]: 42.1%
16 | Cn1c(=O)n(CCCO)c(=O)c2c1nc(C1(F)CCC(F)(F)CC1)n2Cc1cc(F)cc(F)c1 [Example E61, 7-(3,5-difluorobenzyl)-1-(3-hydroxypropyl)-3-methyl-8-(1,4,4-trifluorocyclohexyl)-3,7-dihydro-1H-purine-2,6-dione] |  | Better (MF% >70%, better metabolic stability) | 77.4% | 
17 | Cn1c(=O)n(CCCO)c(=O)c2c1nc(C1(F)CCC(F)(F)CC1)n2Cc1ccc(F)cc1 [Example E45, 7-(4-fluorobenzyl)-1-(3-hydroxypropyl)-3-methyl-8-(1,4,4-trifluorocyclohexyl)-3,7-dihydro-1H-purine-2,6-dione] |  | Medium (30%<MF%<70%, medium metabolic stability) | 67.0% | Stability Evaluation [5]: Medium (30%<MF%<70%, medium metabolic stability); MF % [5]: 59.1%
